Laboratory results taken from ChEMBL document CHEMBL1156465, “Structures of Mycobacterium tuberculosis 1-deoxy-D-xylulose-5-phosphate reductoisomerase provide new insights into catalysis” (J Biol Chem, 2007).

Assay: Inhibition of Escherichia coli DXR by spectrophotometric method

## O=CN(O)CCCP(=O)(O)O [FOSMIDOMYCIN]
  IC50: 30 nM
